Reference: PubChem BioAssay (NCI)
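Values below derive from 48-hour exposures of cells grown in 96-well plates, with endpoints linearly interpolated between the two concentrations bracketing the appropriate inhibition level. Here, GI50 denotes the concentration required for 50% inhibition of growth. TGI: total growth inhibition.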

What was measured:
Test in all cases: NCI anticancer screen, dose series, 48 h
CCRF-CEM leukemia = test system: CCRF-CEM leukemia
HL-60(TB) leukemia = test system: HL-60(TB) leukemia
KM12 colon = test system: KM12 colon
MDA-MB-435 = test system: MDA-MB-435
OVCAR-3 ovarian = test system: OVCAR-3 ovarian
PC-3 prostate = test system: PC-3 prostate
SF-295 CNS = test system: SF-295 CNS
SK-MEL-28 melanoma = test system: SK-MEL-28 melanoma
SK-OV-3 ovarian = test system: SK-OV-3 ovarian
SNB-75 CNS = test system: SNB-75 CNS

COc1cc2cc(Oc3ccc(NC(=O)Nc4ccc(F)c(C(F)(F)F)c4)cc3)c(C)nc2cc1OCCN1CCCCC1
GI50 (CCRF-CEM leukemia): 1570 nM | TGI (CCRF-CEM leukemia): 4010 nM | GI50 (HL-60(TB) leukemia): 1910 nM | TGI (HL-60(TB) leukemia): 3810 nM | GI50 (KM12 colon): 1770 nM | TGI (KM12 colon): 3300 nM | GI50 (MDA-MB-435): 1740 nM | TGI (MDA-MB-435): 3140 nM | GI50 (OVCAR-3 ovarian): 1870 nM | TGI (OVCAR-3 ovarian): 3440 nM | GI50 (PC-3 prostate): 1450 nM | TGI (PC-3 prostate): 3050 nM | GI50 (SF-295 CNS): 1800 nM | TGI (SF-295 CNS): 3290 nM | GI50 (SK-MEL-28 melanoma): 1650 nM | TGI (SK-MEL-28 melanoma): 3040 nM | GI50 (SK-OV-3 ovarian): 1870 nM | TGI (SK-OV-3 ovarian): 3420 nM | GI50 (SNB-75 CNS): 1330 nM | TGI (SNB-75 CNS): 2600 nM
